Blank lines part the entries; values can stand above or below the compound they belong to.
Assays:
Lys-GFP-ER-HoxA9 cells [1] = assay: Myeloid differentiation assay in Lys-GFP-ER-HoxA9 cells (GFP / CD11b flow cytometry); settings: for myeloid differentiation: ER-HoxA9 cellular differentiation assay, in words; for effect of uridine supplementation of the media on differentiation: uridine rescue, also U937 and THP1
Method: (See Example 20 for assay details.) After four days of compound treatment, cells were assessed by high-throughput flow cytometry for viability based on forward and side-scatter properties, and for differentiation as determined by the endogenous expression of GFP and cell-surface expression of CD11b (APC fluorescence, FIG. 2C).
The cell line used was ERHoxA9 myeloblast cell line. […] Removal of beta-estradiol from the culture media inactivates ERHoxA9 and the cells are freed from the HoxA9-differentiation arrest and undergo normal myeloid differentiation.
Cells were cultured in RPMI (Cellgro) supplemented with 10% fetal bovine serum (Serum Source Int'l), penicillin/streptomycin, L-glutamine (Omega Scientific), 5% conditioned media containing stem cell factor (SCF), and 0.5 μM beta-estradiol (Sigma). On day 1, 25 μL of complete media supplemented with 0.04% Pluronic F-68 (GIBCO) was added to a sterile 384 well culture plate (Greiner) followed by the addition of 0.2 μL of test compound in DMSO (Sigma). Wells contained complete media supplemented with Pluronic F-68 and the 5 μM of the estrogen receptor antagonist fulvestrant that served as a positive control for differentiation. 25 μL of cells (1.2×10^5/ml) in complete media were added and the plates were incubated (37° C./5% CO2) for 4 days. Final concentrations of components were 3,000 cells/well, 4 μM test compound, and 0.4% DMSO.
On day 5, plates were harvested as follows: 5 μL of an antibody/bead solution consisting of a 1:100 dilution of APC-conjugated anti-mouse CD11b (eBioscience, cloneM1/70) and a 1/500 dilution of polystyrene beads (Spherotech) were added to wells and the plates were incubated for 20 min prior to sampling using the HyperCyt® high throughput flow cytometry platform.
Cells were cultured in RPMI (Cellgro) supplemented with 10% fetal bovine serum (Serum Source Int'l), penicillin/streptomycin, L-glutamine (Omega Scientific), 5% conditioned media containing stem cell factor (SCF), and 0.5 μM beta-estradiol (Sigma, E2758). On day 1, 25 μL of complete media supplemented with 0.04% Pluronic F-68 (GIBCO) was added to a sterile 384 well culture plate (Greiner) followed by the addition of 0.2 μL of compound dilution arrays in DMSO. Some wells contained complete media supplemented with Pluronic F-68 and 5 μM of the estrogen receptor antagonist fulvestrant that served as a positive control for differentiation. 25 μL of cells (1.2×10^5/ml) in complete media were added and the plates were incubated (37° C./5% CO2) for 4 days. Final concentrations of components were 3,000 cells/well and 0.4% DMSO.

[2] = biological target: recombinant human DHODH protein (Homo sapiens, UniProt Q02127); assay: In vitro DHODH enzyme inhibition assay; type: biochemical; settings: in words
[3] = tested on: acute promyelocytic leukemia (APL); settings: ATRA incorporated into treatment regimens; from 20%; cited from earlier work
[4] = tested on: HoxA9-Meis1 leukemia cells; assay: Syngeneic HoxA9 and Meis1-driven model of AML
Text: To address the anti-leukemic and differentiation effect of DHODH inhibition in vivo, we chose a syngeneic retroviral transduction model of AML. In this model, bone marrow cells are transduced with MSCV-based retrovirus expressing both HoxA9 and Meis1 oncoproteins and introduced intravenously into recipient mice that have been pre-conditioned with a sub-lethal dose of radiation. Mice that developed acute myeloid leukemia were sacrificed and bone marrow cells were expanded in vitro in media supplemented with SCF and IL-3. To permit easy tracking in vivo, leukemic cells were transduced with lentivirus expressing the Venus fluorescent protein, and double-sorted by fluorescence activated cell sorting (FACS) to purity. These Venus-expressing cultured leukemic cells were re-transplanted into pre-conditioned secondary recipient mice, and these secondary recipients were used in all described experiments. […] Mice were treated at six dosages: (1) vehicle Q2D, (2) BRQ 5 mg/kg Q2D, (3) BRQ 10 mg/kg Q2D, (4) BRQ 25 mg/kg Q2D, (5) vehicle days 1+4 of a 7-day schedule or (6) BRQ 25 mg/kg days 1+4 of a 7-day schedule. Scheduled interim euthanasia and leukemia analyses were performed at two planned time points (FIG. 6A).

THP1 cells [5] = assay: THP-1 subcutaneous xenograft model of AML; type: in vivo, SCID mice
Text: THP1 cells were implanted subcutaneously into the flank of SCID mice, and allowed 10 days to engraft to tumor size of ˜40 mm^2.

[6] = tested on: protein O-GlcNAc modification; assay: Immunoblot of protein O-GlcNAc modification; type: cell-based
Text: FIG. 5E is an immunoblot.
DHODH and OMPD inhibitors lead to depletion of uridine and to myeloid differentiation in model systems. […] (See, Example 24.) Without intending to be bound by theory, part of the differentiation effect may be due to depletion of UDP-GlcNAc leading to decreased O-linked N-acetylglycosylation (GlcNAc) post-translational modification of proteins.

wild-type C57B1/6 mice [7] = settings: C57B1/6, mouse, in vivo, 6 days
DHODH activity = assay: Plasma uridine and dihydroorotate (DHO) after brequinar dosing; type: in vivo, murine
Method: DHODH catalyzes the conversion of dihydroorotate (DHO) to orotate in the endogenous synthesis of uridine monophosphate. Inhibition of DHODH activity results in dihydroorotate accumulation and uridine depletion.
Plasma uridine levels were analyzed at various times thereafter (FIG. 8). […] Patient-specific dosing will be accomplished by adjusting the dose of DHODH inhibitor based on the patient's metabolism. This will involve adjusting the dosage based on the measurement of plasma DHO.

Plasma protein binding = type: in vitro ADME; settings: consistent with published literature
Method: Plasma protein binding was determined by equilibrium dialysis using the Rapid Equilibrium Dialysis (RED) device (Pierce Biotechnology, Rockford, Ill.) for both human and mouse plasma. Each compound was prepared in duplicate at 5 μM in plasma (0.95% acetonitrile, 0.05% DMSO) and added to one side of the membrane (200 μl) with PBS pH 7.4 added to the other side (350 μl). Compounds were incubated at 37° C. for 5 hours with a 250 rpm orbital shake. After incubation, samples were analyzed by UPLC-MS (Waters, Milford, Mass.) with compounds detected by SIR detection on a single quadrupole mass spectrometer.

wild-type C57B1/6 mice [8] = assay: Maximum tolerated dose (MTD) evaluation; settings: doses higher than 15 mg/kg, after 6 days of daily dosing; reversible
[9] = Brequinar plasma concentration after a single IP dose; settings: mouse, FIG. 4E, read-out: half-life in vivo (converted)
[10] = biological target: panel of >400 known kinases; assay: DiscoverX KinomeScan kinase panel; type: binding
[11] = tested on: leukemia initiating cells; assay: Leukemia-initiating cell activity (transplant of FACS-purified leukemia cells into tertiary recipients); type: in vivo, mice
Text: Leukemic cells isolated from the BRQ-treated mice were more differentiated on the basis of their CD11b and Gr-1 cell-surface expression (FIGS. 6C, 6D). To assess their morphology as well as their functional potential as leukemia initiating cells, live Venus-positive leukemic cells were freshly isolated from vehicle or BRQ-treated mice by fluorescence-activated cell sorting (FACS).
FACS-purified leukemia cells from vehicle or BRQ-treated mice were re-introduced into sub-lethally irradiated tertiary recipient mice. The experiment was performed twice: from mice that received BRQ 25 mg/kg every other day for 4 doses (FIG. 7B, left panel), and from mice that received BRQ day 1+4 of a 7-day cycle for a total of 6 doses (FIG. 7B, right panel).

organ rejection = settings: in vivo; cited from earlier work
U937 cells = assay: Differentiation (CD11b upregulation) in U937 human leukemia cell line; type: cell-based
Method: (§1) The THP-1 and U937 human leukemic cell lines were used within the same procedure as in the primary assay, except using human leukemic cell lines. These are factor-independent cell lines and estrogen-independent cell lines, such that cells were grown simply in RPMI supplemented with 10% fetal bovine serum.

THP1 cells [12] = assay: Differentiation (CD11b upregulation) in THP1 human leukemia cell line; type: cell-based
Method: as §1

Bioavailability = settings: in vivo
Solubility = type: physicochemical
Method: Solubility was determined in phosphate buffered saline (PBS) pH 7.4 with 1% DMSO. Each compound was prepared in duplicate at 100 μM in both 100% DMSO and PBS with 1% DMSO. Compounds were allowed to equilibrate at room temperature with a 250 rpm orbital shake for 24 hours. After equilibration, samples were analyzed by UPLC-MS (Waters, Milford, Mass.) with compounds detected by SIR detection on a single quadrupole mass spectrometer. The DMSO samples were used to create a two point calibration curve to which the response in PBS was fit.

Lys-GFP-ER-HoxA9 cells [13] = assay: Cellular metabolite analysis after DHODH inhibition in vitro; type: cell-based, murine; settings: 48 hours treatment
Text: DHODH catalyzes the conversion of dihydroorotate (DHO) to orotate in the endogenous synthesis of uridine monophosphate (UMP, FIG. 5A).

[14] = 5 mg/kg or 10 mg/kg every other day
[15] = 25 mg/kg day 1+4 of a 7-day schedule
[16] = 25 mg/kg day 1+4 of a 7-day schedule, 6 doses

recombinant human DHODH protein, sequence (Q02127 whole entry): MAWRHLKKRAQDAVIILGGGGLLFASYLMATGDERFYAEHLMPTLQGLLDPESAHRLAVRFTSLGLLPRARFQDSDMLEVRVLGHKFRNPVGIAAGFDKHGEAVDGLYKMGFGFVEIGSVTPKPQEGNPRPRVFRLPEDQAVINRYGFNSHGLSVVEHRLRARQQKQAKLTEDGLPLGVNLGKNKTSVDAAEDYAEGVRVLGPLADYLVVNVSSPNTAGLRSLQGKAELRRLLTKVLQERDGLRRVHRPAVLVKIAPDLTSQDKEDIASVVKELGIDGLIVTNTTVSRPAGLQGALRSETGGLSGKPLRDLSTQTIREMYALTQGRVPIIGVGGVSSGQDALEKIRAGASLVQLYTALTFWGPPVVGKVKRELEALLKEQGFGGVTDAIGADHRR

SMILES: CN(Cc1cnc2nc(N)nc(N)c2n1)c1ccc(C(=O)N[C@@H](CCC(=O)O)C(=O)O)cc1 [methotrexate]
myeloid differentiation (Lys-GFP-ER-HoxA9 cells [1]): cytotoxicity without differentiation

SMILES: Cc1c(-c2ccc(-c3ccccc3F)cc2)nc2ccc(F)cc2c1C(=O)O [brequinar sodium]
myeloid differentiation (Lys-GFP-ER-HoxA9 cells [1]): active
DHODH enzyme inhibition [2]: active

SMILES: CC1=C(/C=C/C(C)=C/C=C/C(C)=C/C(=O)O)C(C)(C)CCC1 [ATRA, all-trans retinoic acid]
overall survival of patients with APL [3]: 75%

SMILES: Cc1oncc1C(=O)Nc1ccc(C(F)(F)F)cc1 [leflunomide, 5-methyl-N-[4-(trifluoromethyl)phenyl]-isoxazole-4-carboxamide]
myeloid differentiation (Lys-GFP-ER-HoxA9 cells [1]): active
leukemic burden ([4]; 25 mg/kg daily): did not result in a reduction in leukemic burden
expression of the differentiation marker CD11b ([4]; 25 mg/kg daily (highest dosage)): very mild increase

SMILES: Cc1c(-c2ccc(-c3ccccc3F)cc2)nc2ccc(F)cc2c1C(=O)O [brequinar, 6-fluoro-2-(2′-fluoro-[1,1′-biphenyl]-4-yl)-3-methyl-quinoline-4-carboxylic acid]
increase in ED50 (Lys-GFP-ER-HoxA9 cells [1]; cells cultured in 50% FBS): ~2 fold
myeloid differentiation effect in vitro (Lys-GFP-ER-HoxA9 cells [1]; pulses that lasted fewer than 48-hours): almost no effect
tumor growth (THP1 cells [5]; 5 mg/kg daily IP): arrested tumor growth
tumor growth (THP1 cells [5]; 15 mg/kg Q3D IP): slowed tumor growth
reduction in cellular uridine levels (THP1 cells [5]; THP1 cells isolated from treated mice vs vehicle): 90 % AUC
differentiation of explanted THP1 cells (CD11b expression) (THP1 cells [5]; tumors explanted after 10 days of treatment): marked differentiation
protein O-GlcNAc modification [6]: global reduction of protein O-GlcNAc modification
tolerated dose (wild-type C57B1/6 mice [7]): up to 15 mg/kg
change in DHO levels, IP versus PO administration (DHODH activity; FIG. 11): similar
time until DHO levels undetectable again (DHODH activity; single 25 mg/kg dose): ≤ 72 h
time to rebound of plasma uridine (DHODH activity; single dose 25 mg/kg): about 48 hours
protein-bound (Plasma protein binding): 98-99%
survival [4, 14]: prolongation of survival
tolerability [4, 14]: well tolerated without hematologic toxicity or weight loss
differentiation markers on leukemic cells ([4]; 25 mg/kg Q2D for four doses): upregulation of differentiation markers CD11b (Mac-1) and Gr-1 (Ly6C/G)
leukemic involvement of bone marrow, spleen and peripheral blood ([4]; 25 mg/kg Q2D for four doses): dramatic decrease in the leukemic involvement of their bone marrow, spleen, and peripheral blood
side effects ([4]; 25 mg/kg Q2D for four doses): weight loss, anemia, and thrombocytopenia
time off treatment until relapse with leukemia ([4]; 25 mg/kg day 1+4, discontinued after 14 doses (day 59)): approximately 4 weeks
survival [4, 15]: even more dramatic prolongation of survival
toxicity [4, 15]: without toxicity
leukemic involvement of bone marrow, spleen and peripheral blood [4, 16]: even more dramatic decrease in the leukemic involvement of their bone marrow, spleen, and peripheral blood
side effects [4, 16]: none of the side effects
cellular uridine, UDP and UDP-glycoconjugates ([4]; HoxA9-Meis1 leukemia cells from bone marrow of treated mice): significant reduction in cellular uridine
tolerability and efficacy ([4]; administered every 3-days, mouse model of AML): both effective against AML and well-tolerated
toxicity (wild-type C57B1/6 mice [8]): weight loss and thrombocytopenia
half-life [9]: ~12 h
kinase inhibitory activity ([10]; 100 nM): near-complete absence of kinase inhibitory activity
kinase inhibitory activity ([10]; 1 μM): near-complete absence of kinase inhibitory activity
morphology of leukemic cells isolated from treated mice ([11]; Wright-Giemsa cytospin): morphologic granulocytic differentiation
leukemia development in recipients of leukemic cells from treated donors ([11]; donors: 25 mg/kg every other day 4 doses, or day 1+4 of 7-day cycle 6 doses, both cases): took longer to develop symptoms of leukemia
prevention of organ rejection (organ rejection): effective in preventing organ rejection

SMILES: NC(=O)c1[nH]nc([C@@H]2O[C@H](CO)[C@@H](O)[C@H]2O)c1O [pyrazofurin]
myeloid differentiation (Lys-GFP-ER-HoxA9 cells [1]): phenocopied the differentiation effect of DHODH inhibition
effect of uridine supplementation of the media on differentiation (Lys-GFP-ER-HoxA9 cells [1]): abrogated the differentiation effect

SMILES: COc1cccc2c1C(=O)c1c(O)c3c(c(O)c1C2=O)C[C@@](O)(C(C)=O)C[C@@H]3O[C@H]1C[C@H](N)[C@H](O)[C@H](C)O1 [daunorubicin]
myeloid differentiation (Lys-GFP-ER-HoxA9 cells [1]): cytotoxicity without differentiation

DHODH enzyme inhibition [2]: inhibitors of DHODH
SMILES: O=C(O)c1cccnc1Nc1ccc(Cl)cc1 [Compound C03]
myeloid differentiation (Lys-GFP-ER-HoxA9 cells [1]): triggered myeloid differentiation
effect of uridine supplementation of the media on differentiation (Lys-GFP-ER-HoxA9 cells [1]): abrogated the differentiation effect
differentiation (upregulation of CD11b expression) (U937 cells): promoted differentiation
differentiation (upregulation of CD11b expression) (THP1 cells [12]): promoted differentiation

SMILES: Nc1ccn([C@@H]2O[C@H](CO)[C@@H](O)[C@@H]2O)c(=O)n1 [cytarabine]
myeloid differentiation (Lys-GFP-ER-HoxA9 cells [1]): cytotoxicity without differentiation

DHODH enzyme inhibition [2]: active
SMILES: C/C(O)=C(\C#N)C(=O)Nc1ccc(C(F)(F)F)cc1 [teriflunomide, (2Z)-2-cyano-3-hydroxy-N-[4-(trifluoromethyl)phenyl]but-2-enamide]
myeloid differentiation (Lys-GFP-ER-HoxA9 cells [1]): active

SMILES: O=C(CCNC(=O)c1ccc(OC(F)(F)F)cc1)N[C@@H]1CCCc2ccccc21 [ML390]
effect of uridine supplementation of the media on differentiation (Lys-GFP-ER-HoxA9 cells [1]): abrogated the differentiation effect
protein O-GlcNAc modification [6]: global reduction of protein O-GlcNAc modification
bioavailability (Bioavailability): low
DHODH enzyme inhibition [2]: DHODH was confirmed as the target
solubility (Solubility): low
accumulation of dihydroorotate (Lys-GFP-ER-HoxA9 cells [13]): > 500 fold
uridine and downstream metabolites (Lys-GFP-ER-HoxA9 cells [13]): depletion of uridine and other downstream metabolites

SMILES: O=C(CCNC(=O)c1ccc(Cl)cc1)N[C@@H]1CCCc2ccccc21 [(R)-C07]
myeloid differentiation (Lys-GFP-ER-HoxA9 cells [1]): triggered myeloid differentiation
effect of uridine supplementation of the media on differentiation (Lys-GFP-ER-HoxA9 cells [1]): abrogated the differentiation effect
DHODH enzyme inhibition [2]: inhibitors of DHODH
